The record followed here is patent US20040058903A1, “Benzamide compounds as apo b secretion inhibitors” (priority 2000, published 2004).

Assay [1] has as its system ddY-mice. The assay can be described thus: Lipids lowering effect on ddY-mice. Conditions: male ddY-mice, oral dose 32 mg/kg, 2 hr after administration, percent relative to baseline (0 hr); for Cholesterol (% of 0 hr) 2 hr: plasma total-cholesterol; for Triglyceride (% of 0 hr) 2 hr: plasma triglyceride. The format is in vivo. The source says:
Test 2: Lipids Lowering Effect on ddY-Mice
Male ddy-mice were housed in temperature- and humidity-controlled rooms and fed with laboratory chow. The animals were randomized according to their body weight and deprived of food just before the experiment. A blood sample (baseline blood sample) was collected from the retro orbital venous plexus before administration of the test drug, and then the animals were orally dosed with the test drug in a vehicle (aqueous solution of 0.5% methylcellulose). Blood samples were drawn at 2 hours after drug administration for the measurement of cholesterol and triglyceride.
Plasma total-cholesterol and plasma triglyceride were determined by conventional enzyme-methods using commercially available kits. The cholesterol CII-Test Wako (Wako Pure Chemical Industries, Ltd.) was used for the measurement of cholesterol, and the triglyceride E-test Wako (Wako Pure Chemical Industries, Ltd.) was used for the measurement of triglyceride.
Lipids lowering effects were shown in percent relative to the baseline level (level at 0 hr).

The subject of assay [2] is Apo B secretion. As to the kind of experiment: Measurement of inhibition of Apo B secretion (HepG2 cells, ELISA). In kind it is cell-based. The conditions noted are these: 15-hour incubation, 0.1% DMSO treated cells as controls; for inhibition at 1 µM: Homo sapiens, 10^−6 M. The procedure:
Test 1: Measurement of Inhibition of Apo B Secretion
HepG2 cells were seeded in Eagles medium containing 10% fetal calf serum (FCS) at a density of 30000 cells/well in 96-well plates and allowed to grow for 3 days before treatment. At this time, the medium was replaced with fresh medium containing 0.1% dimethyl sulfoxide (DMSO) and the indicated concentrations of a test compound. After 15-hour incubation, the amount of Apo B and Apo AI accumulated in the media was determined by ELISA.
The assay was carried out at room temperature. A flat bottomed micro ELISA plate (manufactured by Nunc) was coated with an anti Apo B monoclonal antibody solution ([…] in 0.05% carbonate buffer, pH 9.6) by adding the antibody solution at a volume of 100 μl per well. After 1-hour incubation on a plate mixer, the unbound materials were removed by washing the well 3 times with a washing buffer (phosphate buffered saline, pH 7.2 containing 0.1% bovine serum albumin and 0.05% Tween-20). Then 20 μl of […] and 100 μl of a solution of peroxidase coupled anti Apo B antibody were added. After 1-hour incubation on a plate mixer, washing was performed 3 times to remove the unbound materials. A freshly prepared substrate solution (2.5 mg/ml ortho-phenylene diamine and 0.018% H2Oz in 0.11 M Na2HPO4-0.044 M sodium citrate buffer, pH 5.4) at a volume of 200 μl was then added to each well. After 20-minute incubation, the enzyme reaction was terminated by adding 50 μl of 0.5 M sulfuric acid. Absorbance of each well was determined at 490 nm using a microplate reader. Apo B concentration was calculated from a standard curve generated from purified Apo B standard that was run in parallel in the same plate. Inhibition of Apo B secretion by the test compound is calculated taking […] treated cells as controls.
Measurement of Apo AI was performed similar to that of Apo B, except for diluting the sample 11-fold with a dilution buffer (phosphate buffered saline, pH 7.2 containing 0.5% bovine serum albumin and 0.05% Tween-20). […]

Take `O=C(Nc1ccc(CCCc2ccccn2)cc1)c1ccccc1-c1ccc(C(F)(F)F)cc1` [Example 25, N-{4-[3-(2-pyridinyl)propyl]phenyl}-4′-(trifluoromethyl)-1,1′-biphenyl-2-carboxamide]: in assay [1], the “Cholesterol (% of 0 hr) 2 hr” value is 78 % of 0 hr and the “Triglyceride (% of 0 hr) 2 hr” value is 23 % of 0 hr.
In assay [2], `Nc1cccc(CCCc2ccc(NC(=O)c3ccccc3-c3ccc(C(F)(F)F)cc3)cc2)n1` [Example 44, N-{4-[3-(6-amino-2-pyridinyl)propyl]phenyl}-4′-(trifluoromethyl)-1,1′-biphenyl-2-carboxamide] gave an inhibition at 1 µM of 100%.
With `O=C(Nc1ccc(NCCc2ccccn2)cc1)c1ccccc1-c1ccc(C(F)(F)F)cc1` [Example 59, N-(4-{[2-(2-pyridinyl)ethyl]amino}phenyl)-4′-(trifluoromethyl)-1,1′-biphenyl-2-carboxamide], in assay [1], the “Cholesterol (% of 0 hr) 2 hr” value is given as 77 % of 0 hr and the “Triglyceride (% of 0 hr) 2 hr” value is recorded as 15 % of 0 hr.
The compound `O=C(Nc1ccc(NCCc2ccccn2)cc1)c1ccccc1Nc1cccc(C(F)(F)F)c1` [Example 64, N-(4-{[2-(2-pyridinyl)ethyl]amino}phenyl)-2-[3-(trifluoromethyl)-anilino]benzamide] yielded an inhibition at 1 µM in assay [2] of 100%.
Turning to `O=C(Cc1ccccn1)Nc1ccc(NC(=O)c2ccccc2-c2ccc(C(F)(F)F)cc2)cc1` [Example 65, N-{4-[(2-pyridinylacetyl)amino]phenyl]-4′-(trifluoromethyl)-1,1′-biphenyl-2-carboxamide], the “Inhibition of Apo B secretion at 10^−6 M (%)” value in assay [2] is on record as 92.2%. Moreover, in assay [1], the “Cholesterol (% of 0 hr) 2 hr” value was 83 % of 0 hr and the “Triglyceride (% of 0 hr) 2 hr” value is 36 % of 0 hr.
